Measured values published in ChEMBL document CHEMBL5303573, “Mapping human microbiome drug metabolism by gut bacteria and their genes” (Nature, 2019).

What was measured:
[1] = The drug is tested on Blautia hansenii strain: DSM20583 for biotransformation. The drug concentrations were measured before and after a 12-h incubation by liquid-chromatography-coupled mass spectrometry (LC–MS); conditions: 2 µM
[2] = bacteroides fragilis, 12 h, 2 µM
Description: The drug is tested on Bacteroides fragilis strain: NCTC 9343 for biotransformation. The drug concentrations were measured before and after a 12-h incubation by liquid-chromatography-coupled mass spectrometry (LC–MS)

[3] = The drug is tested on Bacteroides fragilis strain: ATCC43859 for biotransformation. The drug concentrations were measured before and after a 12-h incubation by liquid-chromatography-coupled mass spectrometry (LC–MS); conditions: 2 µM
[4] = The drug is tested on Bacteroides vulgatus strain: ATCC8482 for biotransformation. The drug concentrations were measured before and after a 12-h incubation by liquid-chromatography-coupled mass spectrometry (LC–MS); conditions: phocaeicola vulgatus, 2 µM
[5] = The drug is tested on Providencia rettgeri strain: DSM1131 for biotransformation. The drug concentrations were measured before and after a 12-h incubation by liquid-chromatography-coupled mass spectrometry (LC–MS); type: ADME; parameters: dose 2 uM, timepoint 0 vs 12 hours; conditions: 2 µM
[6] = The drug is tested on Bacteroides dorei strain: DSM17855 for biotransformation. The drug concentrations were measured before and after a 12-h incubation by liquid-chromatography-coupled mass spectrometry (LC–MS); conditions: phocaeicola dorei, 2 µM
[7] = The drug is tested on Collinsella intestinalis strain: DSM13280 for biotransformation. The drug concentrations were measured before and after a 12-h incubation by liquid-chromatography-coupled mass spectrometry (LC–MS); conditions: 2 µM
[8] = The drug is tested on Bacteroides coprophilus strain: DSM18228 for biotransformation. The drug concentrations were measured before and after a 12-h incubation by liquid-chromatography-coupled mass spectrometry (LC–MS); conditions: 2 µM
[9] = The drug is tested on Providencia stuartii strain: ATCC25827 for biotransformation. The drug concentrations were measured before and after a 12-h incubation by liquid-chromatography-coupled mass spectrometry (LC–MS); conditions: 2 µM
[10] = The drug is tested on Bacteroides ovatus strain: ATCC8483 for biotransformation. The drug concentrations were measured before and after a 12-h incubation by liquid-chromatography-coupled mass spectrometry (LC–MS); conditions: 2 µM
[11] = The drug is tested on Subdoligranulum variabile strain: DSM15176 for biotransformation. The drug concentrations were measured before and after a 12-h incubation by liquid-chromatography-coupled mass spectrometry (LC–MS); conditions: 2 µM
[12] = The drug is tested on Coprococcus comes strain: ATCC27758 for biotransformation. The drug concentrations were measured before and after a 12-h incubation by liquid-chromatography-coupled mass spectrometry (LC–MS); type: ADME; parameters: dose 2 uM, timepoint 0 vs 12 hours; conditions: 2 µM
[13] = bacteroides stercoris, 12 h, 2 µM
Description: The drug is tested on Bacteroides stercoris strain: ATCC43183 for biotransformation. The drug concentrations were measured before and after a 12-h incubation by liquid-chromatography-coupled mass spectrometry (LC–MS)

[14] = The drug is tested on Anaerococcus hydrogenalis strain: DSM7454 for biotransformation. The drug concentrations were measured before and after a 12-h incubation by liquid-chromatography-coupled mass spectrometry (LC–MS); conditions: 2 µM
[15] = anaerostipes sp., 12 h, 2 µM
Description: The drug is tested on Anaerostipes sp. strain: fecal isolate for biotransformation. The drug concentrations were measured before and after a 12-h incubation by liquid-chromatography-coupled mass spectrometry (LC–MS)

[16] = The drug is tested on Eubacterium hallii strain: DSM3353 for biotransformation. The drug concentrations were measured before and after a 12-h incubation by liquid-chromatography-coupled mass spectrometry (LC–MS); conditions: anaerobutyricum hallii, 2 µM
[17] = bifidobacterium adolescentis, 12 h, 2 µM
Description: The drug is tested on Bifidobacterium adolescentis strain: ATCC 15703 for biotransformation. The drug concentrations were measured before and after a 12-h incubation by liquid-chromatography-coupled mass spectrometry (LC–MS)

[18] = bacteroides fragilis, 12 h, 2 µM; remark: listed apart in the source
Description: The drug is tested on Bacteroides fragilis strain: 3397 (T10) for biotransformation. The drug concentrations were measured before and after a 12-h incubation by liquid-chromatography-coupled mass spectrometry (LC–MS)

[19] = bacteroides fragilis, 12 h, 2 µM; remark: listed apart in the source
Description: The drug is tested on Bacteroides fragilis strain: DS-208 for biotransformation. The drug concentrations were measured before and after a 12-h incubation by liquid-chromatography-coupled mass spectrometry (LC–MS)

[20] = The drug is tested on Parabacteroides merdae strain: ATCC43184 for biotransformation. The drug concentrations were measured before and after a 12-h incubation by liquid-chromatography-coupled mass spectrometry (LC–MS); conditions: 2 µM

SMILES	Bacterial Biotransformation [1]	Bacterial Biotransformation [2]	Bacterial Biotransformation [3]	Bacterial Biotransformation [4]	Bacterial Biotransformation [5]	Bacterial Biotransformation [6]	Bacterial Biotransformation [7]	Bacterial Biotransformation [8]	Bacterial Biotransformation [9]	Bacterial Biotransformation [10]	Bacterial Biotransformation [11]	Bacterial Biotransformation [12]	Bacterial Biotransformation [13]	Bacterial Biotransformation [14]	Bacterial Biotransformation [15]	Bacterial Biotransformation [16]	Bacterial Biotransformation [17]	Bacterial Biotransformation [18]	Bacterial Biotransformation [19]	Bacterial Biotransformation [20]
CN1CCN(C(=O)O[C@H]2c3nccnc3C(=O)N2c2ccc(Cl)cn2)CC1 [ESZOPICLONE]	Compound NOT metabolized	Compound NOT metabolized	Compound NOT metabolized	Compound metabolized	Compound NOT metabolized	Compound NOT metabolized	Compound NOT metabolized	Compound NOT metabolized	Compound NOT metabolized	Compound NOT metabolized	Compound NOT metabolized	Compound NOT metabolized	Compound NOT metabolized	Compound NOT metabolized	Compound NOT metabolized	Compound metabolized				
COCCCC/C(=N\OCCN)c1ccc(C(F)(F)F)cc1.O=C(O)/C=C\C(=O)O [FLUVOXAMINE MALEATE]	Compound metabolized		Compound NOT metabolized	Compound metabolized	Compound NOT metabolized	Compound NOT metabolized		Compound metabolized	Compound NOT metabolized	Compound metabolized	Compound NOT metabolized			Compound NOT metabolized	Compound NOT metabolized	Compound NOT metabolized	Compound NOT metabolized	Compound metabolized		
COC1=C(OC)C(=O)C(CCCCCCCCCCO)=C(C)C1=O [IDEBENONE]	Compound NOT metabolized	Compound metabolized	Compound metabolized	Compound metabolized	Compound NOT metabolized	Compound NOT metabolized		Compound NOT metabolized	Compound NOT metabolized	Compound NOT metabolized	Compound metabolized	Compound NOT metabolized	Compound NOT metabolized	Compound NOT metabolized	Compound metabolized	Compound metabolized	Compound NOT metabolized	Compound metabolized	Compound metabolized	Compound NOT metabolized
C=CCN1CC[C@]23c4c5ccc(O)c4O[C@H]2C(=O)CC[C@@]3(O)[C@H]1C5 [NALOXONE]	Compound metabolized	Compound metabolized	Compound metabolized	Compound metabolized	Compound NOT metabolized	Compound metabolized	Compound NOT metabolized	Compound metabolized	Compound NOT metabolized	Compound metabolized	Compound NOT metabolized	Compound NOT metabolized		Compound NOT metabolized	Compound NOT metabolized	Compound NOT metabolized	Compound metabolized	Compound metabolized	Compound metabolized	
Cc1ccnc2c1NC(=O)c1cccnc1N2C1CC1 [NEVIRAPINE]	Compound metabolized	Compound NOT metabolized	Compound NOT metabolized	Compound NOT metabolized	Compound NOT metabolized	Compound NOT metabolized	Compound NOT metabolized	Compound NOT metabolized	Compound NOT metabolized	Compound NOT metabolized	Compound NOT metabolized	Compound NOT metabolized	Compound NOT metabolized	Compound NOT metabolized	Compound NOT metabolized	Compound NOT metabolized	Compound NOT metabolized		Compound metabolized	Compound NOT metabolized
Cc1ccccc1C(OCCN(C)C)c1ccccc1.O=C(O)CC(O)(CC(=O)O)C(=O)O (configuration not stated) [ORPHENADRINE CITRATE]	Compound metabolized		Compound NOT metabolized	Compound NOT metabolized	Compound NOT metabolized	Compound NOT metabolized	Compound NOT metabolized	Compound NOT metabolized	Compound NOT metabolized	Compound NOT metabolized	Compound NOT metabolized	Compound NOT metabolized		Compound NOT metabolized	Compound NOT metabolized	Compound NOT metabolized		Compound NOT metabolized	Compound NOT metabolized	Compound NOT metabolized
O=C(O)CCc1nc(-c2ccccc2)c(-c2ccccc2)o1 [OXAPROZIN]	Compound metabolized	Compound metabolized	Compound metabolized	Compound metabolized	Compound NOT metabolized	Compound metabolized	Compound NOT metabolized	Compound NOT metabolized	Compound NOT metabolized	Compound NOT metabolized	Compound NOT metabolized	Compound NOT metabolized	Compound NOT metabolized	Compound NOT metabolized	Compound NOT metabolized	Compound NOT metabolized	Compound NOT metabolized		Compound metabolized	Compound NOT metabolized
